# Laboratory results as given in patent publication US11078170B2 (Assembly Biosciences, Inc., priority 2017, dated 2021).
# Test system: HBV viral production from HepAD38 cells
# Test: Activity of test compounds on viral production from HepAD38 cells (viral load by qPCR of HBV core sequence in supernatant)
# Assay type: cell-based
# Conditions: Hepatitis B virus, 120 h, 5 days incubation, HBV DNA in supernatant by qPCR, top concentration 10 μM, read-out: Viral Load EC50 Activity range
# Outline: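 EC50 and CC50 come from four-parameter fits of supernatant viral load and CellTiter-Glo viability, respectively. Viral load was measured by core-region TaqMan qPCR against HBV DNA standards and compared with DMSO controls. Tet-free HepAD38 cells (50,000/well, 2% FBS) were exposed to compound, highest 10 μM, for 5 days at 37° C.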
row,SMILES,EC50 [nM]
1,"COCCN1[C@@H](C(=O)Nc2ccc(F)c(Cl)c2)C[C@@H](c2ccc(F)cc2)NS1(=O)=O [HBV-CSU-210-ISO-I, Cis-N-(3-Chloro-4-fluorophenyl)-5-(4-fluorophenyl)-2-(2-methoxyethyl)-1,2,6-thiadiazinane-3-carboxamide 1,1-dioxide]",> 5000
2,"N#CCN1[C@H](C(=O)Nc2ccc(F)c(Cl)c2)C[C@H](c2nccs2)NS1(=O)=O [HBV-CSU-093-ISO-I, Cis-N-(3-Chloro-4-fluorophenyl)-2-(cyanomethyl)-5-(thiazol-2-yl)-1,2,6-thiadiazinane-3-carboxamide 1,1-dioxide]",1000 to 5000
3,"Cc1c(-c2csc([C@H]3C[C@@H](C(=O)Nc4ccc(F)c(Cl)c4)N(C)S(=O)(=O)N3)c2)cnn1C [HBV-CSU-315-ISO-I, Cis-N-(3-chloro-4-fluorophenyl)-5-(4-(1,5-dimethyl-1H-pyrazol-4-yl)thiophen-2-yl)-2-methyl-1,2,6-thiadiazinane-3-carboxamide 1,1-dioxide]",< 1000
4,"CN1[C@H](C(=O)Nc2ccc(F)c(Cl)c2)C[C@H](c2cc(-c3cnn(C)c3)c(Cl)s2)NS1(=O)=O [HBV-CSU-306-ISO-I, Cis-5-(5-chloro-4-(1-methyl-1-pyrazol-4-yl)thiophen-2-yl)-N-(3-chloro-4-fluorophenyl)-2-methyl-1,2,6-thiadiazinane-3-carboxamide 1,1-dioxide]",< 1000
5,"CN1[C@H](C(=O)Nc2ccc(F)c(Cl)c2)C[C@H](c2ncc(-c3c[nH]cn3)s2)NS1(=O)=O [HBV-CSU-333-ISO-I, 5-(5-(1H-imidazol-4-yl)thiazol-2-yl)-N-(3-chloro-4-fluorophenyl)-2-methyl-1,2,6-thiadiazinane-3-carboxamide 1,1-dioxide]",< 1000
6,"CN1[C@@H](C(=O)Nc2ccc(F)c(Cl)c2)C[C@@H](c2cccc(-c3cnn(C)c3)c2)NS1(=O)=O [HBV-CSU-247-ISO-II, Cis-N-(3-chloro-4-fluorophenyl)-2-methyl-5-(3-(1-methyl-1H-pyrazol-4-yl)phenyl)-1,2,6-thiadiazinane-3-carboxamide 1,1-dioxide]",< 1000
